Results on two compounds are retold here after US20070193894A1, “Container for constituting a formulation in liquid form” (IDD-EAL MANUFACTURING COMPANY LIMITED, priority 2004, published 2007).

Series [1] can be described thus: Acetaminophen formulation blends tested in different volumes of water and containers. The series is classed as physicochemical. As to conditions: conclusion of Example 13. The procedure:
Blends of the above components were tested in three different volumes df water: 20 ml, 40 ml and 80 ml in different containers.
In the case of the second formulation a single volume (20 ml) in two different containers were investigated, namely a small bottle and a sampling container with cap.

The nature of series [2]: Ibuprofen formulation test: behaviour in water. The series is classed as physicochemical. Particulars: conclusion of Example 14. As to the method: Two volumes of water were tested, namely 20 ml and 40 ml in two different containers, namely a small bottle and a beaker. One volume of water was tested, namely 20 ml, and a single container, namely a small bottle. In the case of the above two formulations, the behaviour of ibuprofen in water was tested and the generation of bubbles was optimised by increasing the quantity of citric acid, sodium bicarbonate and potassium hydrogen carbonate.

On to `CC(=O)Nc1ccc(O)cc1` [acetaminophen, Acetaminophen], for which, in series [1], the “remaining in suspension in water” value is given as “does not remain in suspension” and the stability in water result was “not stable in water”.

As for `CC(C)Cc1ccc(C(C)C(=O)O)cc1` (stereo not drawn) [ibuprofen, 4-Isobutyl-Alpha-Methylphenylacetic Acid (Ibuprofen)], in series [2], the “remaining in suspension in water” value is “does not remain in suspension” and the stability in water entry is given as “not stable in water”.
